Data set [1] deals with L1210. The data set can be described thus: Antitumor activity against mouse L1210 cells allografted in mouse assessed as increase of host lifespan. The class given is functional.
A short description of data set [2]: Octanol-saturated water partition coefficient, log D of the compound. The class given is physicochemical.
For the next data set, the species on record is Mus musculus. Kind of data set: Toxicity in mouse L1210 cells allografted mouse assessed as mortality up to 5 days. The class given is organism-based. The conditions noted are these: l1210, 120 h.
Data set [3] in a line: Aqueous phase distribution coefficient, log P of the compound in phosphate buffer at pH 7.4. Format: physicochemical.
Data set [4] is described as follows: Distribution coefficient, log P of the compound. Format: physicochemical. The conditions noted are these: octanol/water; read-out: logP.
Data set [5] is described as follows: Aqueous phase distribution coefficient, log P of the compound in 0.01 M NaOH. Format: physicochemical.
Data set [6] has as its system L1210. The data set can be described thus: Antitumor activity against mouse L1210 cells allografted in mouse assessed as increase of host lifespan of 110 days. Format: functional, cell-based.

Activity calls are given as the source filed them. The rule behind the calls is not given here.

In the case of `CCCCN(C)/N=N/c1ccc(C(N)=O)cc1`, in the data set with L1210 [1], the “log(1/C)” value came to 3.47. The compound also had a logD in data set [2] of 2.46.
As to `COc1ccccc1/N=N/N(C)C`, in the data set listed under Mus musculus, the Activity result is given as “Toxic”. In data set [3], this compound returned a logD of 2.34.
As to `CCCCCCCCN(C)/N=N/c1nc[nH]c1C(N)=O`, in the data set on L1210 [1], the “log(1/C)” value stood at 3. In addition, the logP in data set [4] is 3.2; in data set [5] it was 3.22.
`CN(C)/N=N/c1ccccc1C(N)=O`: in the data set on L1210 [1], the “log(1/C)” value is 3.31. For the same compound, the logP in data set [4] amounted to 1.73. This compound had a logD in data set [3] of 1.73.
For the compound `CN(C)/N=N/c1ccc(C#N)cc1`, the Activity result in the data set listed under Mus musculus is given as “Toxic”. In data set [2], this compound displayed a logD of 2.39.
On the same counts, the results for `CN(C)/N=N/c1ccccc1C(=O)NN` are “Toxic” and 1.28.
With `CN(C)/N=N/c1ccccc1Cl`, in the data set on L1210 [1], the “log(1/C)” value is given as 3.26. The compound also displayed a logP in data set [5] of 2.97.
Turning to `CN(C)/N=N/c1cccc([N+](=O)[O-])c1`, the Activity result in the data set filed under Mus musculus is recorded as “Toxic”. In data set [2], this compound had a logD of 2.75.
In the case of `CCCCCCCCN(C)/N=N/c1ccccc1C(=O)O`, the “log(1/C)” value in the data set with L1210 [1] came out at 3.47. Also, the logP in data set [4] and in data set [5] was 0.24 throughout.
As to `CN(C)/N=N/c1ccccc1CO`, the Activity entry in the data set filed under Mus musculus is “Toxic”. Also, the logP in data set [5] came to 1.73.
As for `CCCN(C)/N=N/c1ccccc1C(=O)O`, the “log(1/C)” value in the data set on L1210 [1] is listed as 3.74. In data set [5], the logP is -1.66.
Take `CC(=O)N(C)/N=N/c1ccc(C)cc1`: in the data set with L1210 [1], the “log(1/C)” value came out at 2.78. Also, the logP in data set [4] was determined as 3.13. In data set [2], this compound came in with a logD of 3.13.
As for `CN(CCO)/N=N/c1ccccc1`, the Activity result in the data set listed under Mus musculus is “Toxic”. In addition, the logP in data set [5] was found to be 1.71.
Regarding `CN(C)/N=N/c1ccccc1`, the “log(1/C)” value with L1210 [1] is listed as 3.85. For the same compound, in data set [4], the logP was determined as 2.59. For the same compound, the logD in data set [3] was 2.59.
Turning to `CN(C)/N=N/c1ccccc1I`, the outcome in the data set on L1210 [6] was inactive. This compound displayed a logP in data set [5] of 3.5.
With `COC(=O)c1c[nH]nc1/N=N/N(C)C`, in the data set with L1210 [1], the “log(1/C)” value is listed as 3.49. In addition, the logD in data set [2] is 0.04.
In data set [2], `CN(C)/N=N/c1ccccc1C(=O)NC#N` returned a logD of 0.8.
As for `CN(C)/N=N/c1ccccc1C(F)(F)F`, the result in the data set with L1210 [6] was inactive.
Consider `CSc1ccccc1/N=N/N(C)C`, for which, in the data set with L1210 [6], the outcome was inactive. In data set [3], the logD was 3.13.
For the compound `CN(C)/N=N/c1ccc(Cl)cc1C(=O)O`, in the data set with L1210 [6], the result was inactive.

These data come from ChEMBL document CHEMBL3244339, “Antitumor 1-(X-aryl)-3,3-dialkyltriazenes. 1. Quantitative structure-activity relationships vs. L1210 leukemia in mice” (J Med Chem, 1978).
